From BindingDB's records for doi:10.1016/j.bmcl.2007.11.068 (Johnson & Johnson Pharmaceutical Research and Development, 2008) come the findings set out here.

The target in assay [1] is T1, Alpha-1B adrenergic receptor (Homo sapiens, UniProt P35368).
T1 sequence (P35368 whole entry): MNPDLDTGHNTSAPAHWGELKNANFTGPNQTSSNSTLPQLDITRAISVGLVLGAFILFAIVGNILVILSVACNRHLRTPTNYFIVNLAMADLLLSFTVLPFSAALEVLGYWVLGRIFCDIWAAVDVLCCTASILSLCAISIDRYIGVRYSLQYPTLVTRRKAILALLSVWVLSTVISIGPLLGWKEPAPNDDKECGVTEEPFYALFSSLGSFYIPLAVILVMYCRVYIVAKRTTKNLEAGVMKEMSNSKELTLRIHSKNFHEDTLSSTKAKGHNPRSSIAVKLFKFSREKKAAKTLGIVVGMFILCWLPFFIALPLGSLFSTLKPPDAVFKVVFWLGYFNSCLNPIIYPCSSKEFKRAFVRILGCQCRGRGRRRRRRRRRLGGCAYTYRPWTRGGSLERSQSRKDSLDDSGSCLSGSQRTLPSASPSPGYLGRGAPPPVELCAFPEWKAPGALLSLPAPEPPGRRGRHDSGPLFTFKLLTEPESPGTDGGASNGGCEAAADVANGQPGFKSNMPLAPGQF

Assay [2] deals with T2, Alpha-1D adrenergic receptor (Homo sapiens, UniProt P25100).
T2 sequence (P25100 whole entry): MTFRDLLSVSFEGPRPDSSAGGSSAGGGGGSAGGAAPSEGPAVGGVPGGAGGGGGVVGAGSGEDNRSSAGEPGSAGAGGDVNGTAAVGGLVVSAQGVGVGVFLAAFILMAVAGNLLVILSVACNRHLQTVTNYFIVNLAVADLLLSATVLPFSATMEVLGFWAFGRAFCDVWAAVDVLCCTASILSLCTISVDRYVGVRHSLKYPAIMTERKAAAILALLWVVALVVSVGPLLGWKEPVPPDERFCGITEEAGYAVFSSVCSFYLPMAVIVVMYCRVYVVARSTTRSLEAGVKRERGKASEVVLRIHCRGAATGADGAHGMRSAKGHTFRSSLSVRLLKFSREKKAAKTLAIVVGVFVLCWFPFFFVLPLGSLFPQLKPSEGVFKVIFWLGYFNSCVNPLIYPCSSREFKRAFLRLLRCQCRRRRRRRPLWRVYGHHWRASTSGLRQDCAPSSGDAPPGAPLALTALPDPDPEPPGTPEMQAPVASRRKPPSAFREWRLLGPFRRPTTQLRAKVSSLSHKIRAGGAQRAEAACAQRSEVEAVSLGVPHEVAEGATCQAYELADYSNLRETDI

A word on the Ki: it is the equilibrium dissociation constant of an inhibitor or competing ligand from its target. Higher therefore signals a looser hold on the target. As for `CCOc1ccccc1OCCNC(C)Cc1ccc(OC)c(S(N)(=O)=O)c1` (configuration not stated) [NSC_60147], the inhibition constant (Ki) turned out to be 2 nM in assay [1] and 0.2 nM in assay [2].
